Results as given in US20230150978A1, “QUINAZOLINONE DERIVATIVES AND USES THEREOF FOR TREATING A CANCER” (ENYO PHARMA, priority 2020, published 2023).

How the values were obtained:
Calreticulin = Calreticulin release (ER to plasma membrane translocation) screen, Nano-Glo HiBiT extracellular detection; format: cell-based; details: Homo sapiens, MDA-MB-231, MDA-MB-231 cells stably expressing Calreticulin-HiBiT; extracellular luminescence; read-out: CalR EC50
HMGB1 = HMGB1 release screen, Nano-Glo HiBiT extracellular detection; format: cell-based; details: Homo sapiens, MDA-MB-231, MDA-MB-231 cells stably expressing HMGB1-HiBiT; extracellular luminescence

| EC50 (Calreticulin) [µM] | melting point [°C] | EC50 (HMGB1) [µM] | SMILES |
| --- | --- | --- | --- |
| 0.0988 | 194 to 211 | 0.14 | CN(C)c1cc2c(=O)[nH]c(CN3CC(C)(C)c4ccccc43)nc2cn1 [Ex. #92, 6-(dimethylamino)-2-[(3,3-dimethylindolin-1-yl)methyl]-3H-pyrido[3,4-d]pyrimidin-4-one] |
| 9.96 | 187 to 197 | 11.5 | CC1(C)CN(Cc2nc3ccc(C#N)cc3c(=O)[nH]2)c2ccccc21 [Ex. #95, 2-[(3,3-dimethylindolin-1-yl)methyl]-4-oxo-3H-quinazoline-6-carbonitrile] |
| 9.86 | 155 to 165 | 10.6 | COCCCOc1ccc2nc(CN3CC(C)(C)c4ccccc43)[nH]c(=O)c2c1 [Ex. #96, 2-[(3,3-dimethylindolin-1-yl)methyl]-6-(3-methoxypropoxy)-3H-quinazolin-4-one] |
| 6.16 | 199 to 221 | 7.56 | CC1(C)CN(Cc2nc3cc4c(cc3c(=O)[nH]2)OCO4)c2ccccc21 [Ex. #119, 6-[(3,3-dimethylindolin-1-yl)methyl]-7H-[1,3]dioxolo[4,5-g]quinazolin-8-one] |
| 1.66 | 174 to 179 | 12.7 | COc1ccc2nc(CN3CCc4ccccc4C3)[nH]c(=O)c2c1 [Ex. #122, 2-(3,4-dihydro-1H-isoquinolin-2-ylmethyl)-6-methoxy-3H-quinazolin-4-one] |
| 9.76 | 196 to 206 | 15.9 | COc1ccc2nc(CN3CCc4c(cccc4C(F)(F)F)C3)[nH]c(=O)c2c1 [Ex. #125, 6-methoxy-2-[[5-(trifluoromethyl)-3,4-dihydro-1H-isoquinolin-2-yl]methyl]-3H-quinazolin-4-one] |
| 9.06 | 195 to 203 | 15.1 | COc1cccc2c1CN(Cc1nc3ccc(Cl)cc3c(=O)[nH]1)CC2 [Ex. #130, 6-chloro-2-[(8-methoxy-3,4-dihydro-1H-isoquinolin-2-yl)methyl]-3H-quinazolin-4-one] |
| 8.16 | 211 to 233 | 14 | COc1ccc2nc(CN3CCc4c(N)cccc4C3)[nH]c(=O)c2c1 [Ex. #133, 2-[(5-amino-3,4-dihydro-1H-isoquinolin-2-yl)methyl]-6-methoxy-3H-quinazolin-4-one] |
